Active and inactive are the calls of the source. The rule behind the calls is not given here.
Test system: CCRIS mutagenicity, Ames/micronucleus/aberration tests
Assay: CCRIS mutagenicity studies

## C=O
End Point: IN VITRO CHROMOSOMAL ABERRATIONS, Test System: SYRIAN HAMSTER EMBRYO (SHE) CELLS, Metabolic Activation: NONE
  mutagenic call: active; positive (structural changes)
End Point: In vitro chromosomal aberrations, Test System: Chinese hamster ovary (CHO) cells, Metabolic Activation: None
  mutagenic call: active; positive
End Point: In vitro chromosomal aberrations, Test System: Chinese hamster ovary (CHO) cells, Metabolic Activation: S-9
  mutagenic call: active; positive
End Point: In vivo micronucleus, Test System: Peripheral blood erythrocytes, Species: Rat, Strain/Sex: F344/DuCrl / Male, Route: Inhalation
  mutagenic call: inactive; negative
Test System: AMES SALMONELLA TYPHIMURIUM, Strain/Indicator: TA97, Metabolic Activation: NONE, Method: PREINCUBATION
  mutagenic call: inactive; negative
Test System: AMES SALMONELLA TYPHIMURIUM, Strain/Indicator: TA97, Metabolic Activation: NONE, Method: STANDARD PLATE
  mutagenic call: active; positive
Test System: AMES SALMONELLA TYPHIMURIUM, Strain/Indicator: TA98, Metabolic Activation: RAT, LIVER, S-9, AROCLOR 1254, Method: PREINCUBATION
  mutagenic call: active; positive
Test System: AMES SALMONELLA TYPHIMURIUM, Strain/Indicator: TA98, Metabolic Activation: RAT, LIVER, S-9, AROCLOR 1254, Method: STANDARD PLATE
  mutagenic call: active; positive
Test System: AMES SALMONELLA TYPHIMURIUM, Strain/Indicator: TA100, Metabolic Activation: MOUSE LIVER S-9, AROCLOR 1254, Method: PREINCUBATION
  mutagenic call: active; positive
Test System: AMES SALMONELLA TYPHIMURIUM, Strain/Indicator: TA100, Metabolic Activation: NONE, Method: SUSPENSION
  mutagenic call: active; positive
Test System: AMES SALMONELLA TYPHIMURIUM, Strain/Indicator: TA100, Metabolic Activation: RAT LIVER S-9, AROCLOR 1254, Method: PREINCUBATION
  mutagenic call: active; positive
Test System: AMES SALMONELLA TYPHIMURIUM, Strain/Indicator: TA100, Metabolic Activation: RAT, LIVER, S-9, AROCLOR 1254, Method: STANDARD PLATE
  mutagenic call: active; positive
Test System: AMES SALMONELLA TYPHIMURIUM, Strain/Indicator: TA100, Metabolic Activation: RAT, LIVER, S-9, AROCLOR 1254, Method: SUSPENSION
  mutagenic call: active; positive
Test System: AMES SALMONELLA TYPHIMURIUM, Strain/Indicator: TA100, Metabolic Activation: RAT, LIVER, S-9, AROCLOR, Method: STANDARD PLATE
  mutagenic call: active; positive
Test System: AMES SALMONELLA TYPHIMURIUM, Strain/Indicator: TA102, Metabolic Activation: NONE, Method: FLUCTUATION TEST
  mutagenic call: active; positive
Test System: AMES SALMONELLA TYPHIMURIUM, Strain/Indicator: TA102, Metabolic Activation: NONE, Method: PREINCUBATION
  mutagenic call: active; positive
Test System: AMES SALMONELLA TYPHIMURIUM, Strain/Indicator: TA104, Metabolic Activation: MOUSE LIVER S-9, AROCLOR 1254, Method: PREINCUBATION
  mutagenic call: active; positive
Test System: AMES SALMONELLA TYPHIMURIUM, Strain/Indicator: TA104, Metabolic Activation: NONE, Method: PREINCUBATION
  mutagenic call: active; positive
Test System: AMES SALMONELLA TYPHIMURIUM, Strain/Indicator: TA104, Metabolic Activation: RAT LIVER S-9, AROCLOR 1254, Method: PREINCUBATION
  mutagenic call: active; positive
Test System: AMES SALMONELLA TYPHIMURIUM, Strain/Indicator: TA104, Metabolic Activation: RAT, LIVER, S-9, AROCLOR 1254, Method: PREINCUBATION
  mutagenic call: active; positive
Test System: AMES SALMONELLA TYPHIMURIUM, Strain/Indicator: TA1535, Metabolic Activation: NONE, Method: PREINCUBATION
  mutagenic call: inactive; negative
Test System: AMES SALMONELLA TYPHIMURIUM, Strain/Indicator: TA1535, Metabolic Activation: NONE, Method: STANDARD PLATE
  mutagenic call: inactive; negative
Test System: AMES SALMONELLA TYPHIMURIUM, Strain/Indicator: TA1535, Metabolic Activation: RAT, LIVER, S-9, AROCLOR 1254, Method: PREINCUBATION
  mutagenic call: inactive; negative
Test System: AMES SALMONELLA TYPHIMURIUM, Strain/Indicator: TA1535, Metabolic Activation: RAT, LIVER, S-9, AROCLOR 1254, Method: STANDARD PLATE
  mutagenic call: inactive; negative
Test System: AMES SALMONELLA TYPHIMURIUM, Strain/Indicator: TA1537, Metabolic Activation: NONE, Method: PREINCUBATION
  mutagenic call: inactive; negative
Test System: AMES SALMONELLA TYPHIMURIUM, Strain/Indicator: TA1537, Metabolic Activation: RAT, LIVER, S-9, AROCLOR 1254, Method: PREINCUBATION
  mutagenic call: inactive; negative
Test System: AMES SALMONELLA TYPHIMURIUM, Strain/Indicator: TA1537, Metabolic Activation: RAT, LIVER, S-9, AROCLOR 1254, Method: STANDARD PLATE
  mutagenic call: active; positive
Test System: AMES SALMONELLA TYPHIMURIUM, Strain/Indicator: TA1538, Metabolic Activation: NONE, Method: PREINCUBATION
  mutagenic call: inactive; negative
Test System: AMES SALMONELLA TYPHIMURIUM, Strain/Indicator: TA1538, Metabolic Activation: NONE, Method: STANDARD PLATE
  mutagenic call: inactive; negative
Test System: AMES SALMONELLA TYPHIMURIUM, Strain/Indicator: TA2638, Metabolic Activation: NONE, Method: STANDARD PLATE
  mutagenic call: active; positive
Test System: AMES SALMONELLA TYPHIMURIUM, Strain/Indicator: TA2638A, Metabolic Activation: NONE, Method: PREINCUBATION
  mutagenic call: active; positive
Test System: AMES SALMONELLA TYPHIMURIUM, Strain/Indicator: UTH8413, Metabolic Activation: NONE, Method: STANDARD PLATE
  mutagenic call: inactive; negative
Test System: AMES SALMONELLA TYPHIMURIUM, Strain/Indicator: UTH8413, Metabolic Activation: RAT, LIVER, S-9, AROCLOR, Method: STANDARD PLATE
  mutagenic call: inactive; negative
Test System: AMES SALMONELLA TYPHIMURIUM, Strain/Indicator: UTH8414, Metabolic Activation: NONE, Method: STANDARD PLATE
  mutagenic call: inactive; negative
Test System: AMES SALMONELLA TYPHIMURIUM, Strain/Indicator: UTH8414, Metabolic Activation: RAT, LIVER, S-9, AROCLOR, Method: STANDARD PLATE
  mutagenic call: inactive; negative
Test System: CHINESE HAMSTER OVARY, Strain/Indicator: CHO-K1 (HPRT)/6-THIOGUANINE, Metabolic Activation: NONE, Method: SUSPENSION
  mutagenic call: active; positive
Test System: CHINESE HAMSTER OVARY, Strain/Indicator: CHO-K1 (HPRT)/6-THIOGUANINE, Metabolic Activation: NONE, Method: SUSPENSION/PLATE
  mutagenic call: inactive; negative
Test System: CHINESE HAMSTER V-79, Strain/Indicator: V-79/6-THIOGUANINE, Metabolic Activation: NONE
  mutagenic call: active; positive
Test System: E. COLI, Strain/Indicator: 016 POLA, Metabolic Activation: NONE, Method: PREINCUBATION
  mutagenic call: inactive; negative
Test System: E. COLI, Strain/Indicator: H/R30R, Metabolic Activation: NONE, Method: PREINCUBATION
  mutagenic call: active; positive
Test System: E. COLI, Strain/Indicator: HS30R UVRA, Metabolic Activation: NONE, Method: PREINCUBATION
  mutagenic call: active; positive
Test System: E. COLI, Strain/Indicator: K12(AB1157) (WILD TYPE), Metabolic Activation: NONE, Method: SUSPENSION/PLATE
  mutagenic call: active; positive
Test System: E. COLI, Strain/Indicator: K12(AB1886) (UVRA), Metabolic Activation: NONE, Method: SUSPENSION/PLATE
  mutagenic call: inactive; negative
Test System: E. COLI, Strain/Indicator: K12(AB2480) (RECA/UVRA), Metabolic Activation: NONE, Method: SUSPENSION/PLATE
  mutagenic call: inactive; negative
Test System: E. COLI, Strain/Indicator: NG30 RECA, Metabolic Activation: NONE, Method: PREINCUBATION
  mutagenic call: inactive; negative
Test System: E. COLI, Strain/Indicator: WP2 (PKM101), Metabolic Activation: NONE, Method: PREINCUBATION
  mutagenic call: active; positive
Test System: E. COLI, Strain/Indicator: WP2, Metabolic Activation: NONE, Method: PREINCUBATION
  mutagenic call: active; positive
Test System: E. COLI, Strain/Indicator: WP2 UVRA (PKM101), Metabolic Activation: NONE, Method: PREINCUBATION
  mutagenic call: active; positive
Test System: E. COLI, Strain/Indicator: WP2 UVRA (PKM101), Metabolic Activation: NONE, Method: STANDARD PLATE
  mutagenic call: active; positive
Test System: E. COLI, Strain/Indicator: WP2 UVRA, Metabolic Activation: NONE, Method: PREINCUBATION
  mutagenic call: active; positive
Test System: MOUSE LYMPHOMA, Strain/Indicator: L5178Y (TK+/TK-), Metabolic Activation: NONE, Method: SUSPENSION/PLATE
  mutagenic call: active; positive

## O=C(O)c1ccc(O)c2c1C(=O)c1cc(O)cc(O)c1C2=O
Test System: AMES SALMONELLA TYPHIMURIUM, Strain/Indicator: TA1537, Metabolic Activation: NONE, Method: STANDARD PLATE
  mutagenic call: inactive; negative
Test System: AMES SALMONELLA TYPHIMURIUM, Strain/Indicator: TA1537, Metabolic Activation: RAT, LIVER, S-9, PCB, Method: STANDARD PLATE
  mutagenic call: inactive; negative

— PubChem BioAssay AID1259407 (Chemical Carcinogenesis Research Information System (CCRIS), 2018)
